Assay results reported in US20080008724A1 (Statens Serum Institute, priority 2006, published 2008).

B1: TB10.4: protein expressed by M. tuberculosis, recombinant (SEQ ID NO: 2) (protein, listed as Mycobacterium tuberculosis)
chain: MSQIMYNYPAMLGHAGDMAGYAGTLQSLGAEIAVEQAALQSAWQGDTGITYQAWQAQWNQAMEDLVRAYHAMSSTHEANTMAMMARDTAEAAKWGGX
modifications: X not resolved here

Tested on: IFN-γ producing T cells
Test: IFN-γ secretion (ELISA) of blood cells from mice vaccinated with TB10.4 antigens, stimulated with TB10.4 peptides
Type: in vivo
Conditions: for specific T-cell response (IFN-γ secretion, ELISA) after vaccination with the individual peptide: mice vaccinated three times with individual TB10.4 peptide in DDA/TDB, cells stimulated with 0.5 μg/ml of the same peptide

Row | Molecule | specific T-cell response (IFN-γ secretion, ELISA) after vaccination with the individual peptide | T-cell recognition of TB10.4 peptides P1-P9 (IFN-γ secretion, ELISA) after vaccination (mice vaccinated 3 times at 2-week intervals in DDA/TDB, blood cells two weeks after final vaccination, stimulated with 0.5 μg/ml of individual peptides)
1 | TB10.4-P1: amino acids 1 to 18 of SEQ ID NO: 2 (MSQIMYNYPAMLGHAGDM; listed as Mycobacterium tuberculosis) | induced a specific T-cell response | –
2 | TB10.4-P3: amino acids 21 to 38 of SEQ ID NO: 2 (YAGTLQSLGAEIAVEQAA; listed as Mycobacterium tuberculosis) | induced a specific T-cell response | –
3 | B1 | – | mainly induced P3 specific T cells
